Assay results published in patent US20220275391A1, “METHODS OF USING ALS INHIBITOR HERBICIDES FOR CONTROL OF UNWANTED VEGETATION IN ALS INHIBITOR HERBICIDE TOLERANT BETA VULGARIS PLANTS” (priority 2010, published 2022).

Legend:
Conditions in all cases: BBCH 14
[1] = system: SB574TL based sugar beet; assay: Field trial, phytotoxicity scoring on homozygous SB574TL mutant sugar beet; format: in vivo, Beta vulgaris
Source text: Based on SB574TL, F4—F6 seeds conferring the mutant allele of the endogenous ALS gene in the homozygous state were applied for further testing.

[2] = system: KLARINA; assay: Field trial, phytotoxicity scoring on ALS inhibitor sensitive reference variety KLARINA
Source text: (§1) The water quantity applied in the various applications equaled 200 l/ha. At 8, 14, 16, 17, 28, and 31 days (as indicated in the various Tables) after application (DAA) of the respective ALS inhibitor herbicide(s), the damages (phytotoxicity/phyto) on the different sugar beet plants were scored according to the scale from 0% to 100%.
(§2) In this context, “0%” means “no phytotoxicity/phyto” and “100%” means plants were completely killed.

[3] = system: BERETTA; assay: Field trial, phytotoxicity scoring on ALS inhibitor sensitive reference variety BERETTA; format: in vivo, Beta vulgaris
Source text: as §1, §2

COc1nc(C)nc(NC(=O)NS(=O)(=O)c2ccccc2I)n1.[Na] [(A1-41), 2-iodo-N-[(4-methoxy-6-methyl-1,3,5-triazinyl)carbamoyl]benzene-sulfonamide sodium salt]
% phyto ([1]; 30 g/ha, 8 days): 14% | % phyto ([1]; 30 g/ha, 14 days): 10% | % phyto ([1]; 30 g/ha, 28 days): 0% | % phyto ([2]; 30 g/ha, 8 days): 90% | % phyto ([2]; 30 g/ha, 14 days): 98% | % phyto ([2]; 30 g/ha, 28 days): 100%

COc1cc(OC)nc(NC(=O)NS(=O)(=O)c2ncccc2C2=NOCCO2)n1.[Na+] [(A1-87)]
% phyto ([1]; 15 g/ha, 8 days): 0% | % phyto ([1]; 15 g/ha, 14 days): 0% | % phyto ([1]; 15 g/ha, 28 days): 0% | % phyto ([1]; 30 gai/ha, 8 DAA): 0% | % phyto ([1]; 30 gai/ha, 17 DAA): 0% | % phyto ([1]; 30 gai/ha, 31 DAA): 0% | % phyto ([2]; 15 g/ha, 8 days): 90% | % phyto ([2]; 15 g/ha, 14 days): 97% | % phyto ([2]; 15 g/ha, 28 days): 99% | % phyto ([2]; 30 gai/ha, 8 DAA): 83% | % phyto ([2]; 30 gai/ha, 17 DAA): 100% | % phyto ([2]; 30 gai/ha, 31 DAA): 100%

COc1cc(OC)nc(Oc2cccc(Oc3nc(OC)cc(OC)n3)c2C(=O)O)n1 [Bispyribac-sodium (C1-1), bispyribac-sodium]
% phyto ([1]; 50 g/ha, 8 days): 23% | % phyto ([1]; 50 g/ha, 14 days): 30% | % phyto ([1]; 50 g/ha, 28 days): 0% | % phyto ([2]; 50 g/ha, 8 days): 90% | % phyto ([2]; 50 g/ha, 14 days): 98% | % phyto ([2]; 50 g/ha, 28 days): 99%

COc1ncc(F)c2nc(S(=O)(=O)Nc3c(F)cccc3F)nn12 [Florasulam (A3-3), florasulam]
% phyto ([1]; 10 g/ha, 8 days (Table 3)): 0% | % phyto ([1]; 10 g/ha, 16 days): 0% | % phyto ([1]; 10 g/ha, 38 days): 0% | % phyto ([3]; 10 g/ha, 8 days): 80% | % phyto ([3]; 10 g/ha, 16 days): 98% | % phyto ([3]; 10 g/ha, 38 days): 98%

COc1nn(C(=O)[N-]S(=O)(=O)c2ccccc2OC(F)(F)F)c(=O)n1C.[Na+] [Flucarbazone-sodium (A2-1), flucarbazone-sodium]
% phyto ([1]; 40 g/ha, 8 days (Table 3)): 0% | % phyto ([1]; 40 g/ha, 16 days): 0% | % phyto ([1]; 40 g/ha, 38 days): 0% | % phyto ([3]; 40 g/ha, 8 days): 80% | % phyto ([3]; 40 g/ha, 16 days): 89% | % phyto ([3]; 40 g/ha, 38 days): 89%

COCc1cnc(C2=NC(C)(C(C)C)C(=O)N2)c(C(=O)O)c1 (stereo not drawn) [Imazamox (B1-2), imazamox]
% phyto ([1]; 40 g/ha, 8 days): 0% | % phyto ([1]; 40 g/ha, 14 days): 0% | % phyto ([1]; 40 g/ha, 28 days): 0% | % phyto ([2]; 40 g/ha, 8 days): 90% | % phyto ([2]; 40 g/ha, 14 days): 97% | % phyto ([2]; 40 g/ha, 28 days): 99%

CC(C)C1(C)N=C(c2nc3ccccc3cc2C(=O)O)NC1=O (stereo not drawn) [Imazaquin (B1-5), imazaquin]
% phyto ([1]; 100 g/ha, 8 days (Table 3)): 0% | % phyto ([1]; 100 g/ha, 16 days): 0% | % phyto ([1]; 100 g/ha, 38 days): 0% | % phyto ([3]; 100 g/ha, 8 days): 80% | % phyto ([3]; 100 g/ha, 16 days): 98% | % phyto ([3]; 100 g/ha, 38 days): 100%

COC(=O)c1ccc(CNS(C)(=O)=O)cc1S(=O)(=O)NC(=O)Nc1nc(OC)cc(OC)n1 [Mesosulfuron-methyl (A1-17), mesosulfuron-methyl]
% phyto ([2]; 60 g/ha, 8 days): 90% | % phyto ([2]; 60 g/ha, 14 days): 97% | % phyto ([2]; 60 g/ha, 28 days): 99%

COc1cc(OC)n2nc(S(=O)(=O)Nc3c(Cl)ccc(C)c3Cl)nc2n1 [Metosulam (A3-5), metosulam]
% phyto ([2]; 30 g/ha, 8 days): 90% | % phyto ([2]; 30 g/ha, 14 days): 97% | % phyto ([2]; 30 g/ha, 28 days): 93%

COC(=O)c1ccccc1S(=O)(=O)NC(=O)Nc1nc(C)nc(OC)n1 [Metsulfuron-methyl (A1-28), metsulfuron-methyl]
% phyto ([2]; 8 g/ha, 8 days): 88% | % phyto ([2]; 8 g/ha, 14 days): 98% | % phyto ([2]; 8 g/ha, 28 days): 99%

COc1cc(OC)nc(NC(=O)NS(=O)(=O)c2ncccc2C(=O)N(C)C)n1 [Nicosulfuron (A1-20), nicosulfuron]
% phyto ([1]; 60 g/ha, 8 days): 0% | % phyto ([1]; 60 g/ha, 14 days): 0% | % phyto ([1]; 60 g/ha, 28 days): 0% | % phyto ([2]; 60 g/ha, 8 days): 90% | % phyto ([2]; 60 g/ha, 14 days): 98% | % phyto ([2]; 60 g/ha, 28 days): 100%

CCS(=O)(=O)c1cccnc1S(=O)(=O)NC(=O)Nc1nc(OC)cc(OC)n1 [Rimsulfuron (A1-26), rimsulfuron]
% phyto ([2]; 12.5 g/ha, 8 days): 81% | % phyto ([2]; 12.5 g/ha, 14 days): 85% | % phyto ([2]; 12.5 g/ha, 28 days): 76%

COC(=O)c1ccccc1S(=O)(=O)NC(=O)Nc1nc(C)cc(C)n1 [Sulfometuron-methyl (A1-27), sulfometuron-methyl]
% phyto ([1]; 60 g/ha, 8 days (Table 3)): 0% | % phyto ([1]; 60 g/ha, 16 days): 3% | % phyto ([1]; 60 g/ha, 38 days): 0% | % phyto ([3]; 60 g/ha, 8 days): 80% | % phyto ([3]; 60 g/ha, 16 days): 97% | % phyto ([3]; 60 g/ha, 38 days): 100%

COC(=O)c1csc(C)c1S(=O)(=O)NC(=O)n1nc(OC)n(C)c1=O [Thiencarbazone-methyl (A2-3), thiencarbazone-methyl]
% phyto ([2]; 15 g/ha, 8 days): 90% | % phyto ([2]; 15 g/ha, 14 days): 97% | % phyto ([2]; 15 g/ha, 28 days): 100% | % phyto ([2]; 30 g/ha, 8 days): 90% | % phyto ([2]; 30 g/ha, 14 days): 97% | % phyto ([2]; 30 g/ha, 28 days): 100%

COC(=O)c1sccc1S(=O)(=O)NC(=O)Nc1nc(C)nc(OC)n1 [Thifensulfuron-methyl (A1-29), thifensulfuron-methyl]
% phyto ([2]; 7.5 g/ha, 8 days): 90% | % phyto ([2]; 7.5 g/ha, 14 days): 98% | % phyto ([2]; 7.5 g/ha, 28 days): 100%

COc1nc(C)nc(NC(=O)NS(=O)(=O)c2ccccc2OCCCl)n1 [Triasulfuron (A1-30), triasulfuron]
% phyto ([1]; 30 g/ha, 8 days (Table 3)): 0% | % phyto ([1]; 30 g/ha, 16 days): 0% | % phyto ([1]; 30 g/ha, 38 days): 0% | % phyto ([3]; 30 g/ha, 8 days): 80% | % phyto ([3]; 30 g/ha, 16 days): 98% | % phyto ([3]; 30 g/ha, 38 days): 100%

COC(=O)c1ccccc1S(=O)(=O)NC(=O)N(C)c1nc(C)nc(OC)n1 [Tribenuron-methyl (A1-31), tribenuron-methyl]
% phyto ([2]; 30 g/ha, 8 days): 91% | % phyto ([2]; 30 g/ha, 14 days): 98% | % phyto ([2]; 30 g/ha, 28 days): 100%

COc1cc(OC)nc(NC(=O)NS(=O)(=O)c2ncccc2OCC(F)(F)F)n1 [Trifloxisulfuron-sodium (A1-32), trifloxysulfuron]
% phyto ([1]; 15 g/ha, 8 days (Table 3)): 0% | % phyto ([1]; 15 g/ha, 16 days): 0% | % phyto ([1]; 15 g/ha, 38 days): 0% | % phyto ([3]; 15 g/ha, 8 days): 80% | % phyto ([3]; 15 g/ha, 16 days): 98% | % phyto ([3]; 15 g/ha, 38 days): 100%
